Data from US11072741B2, “Optically anisotropic layer, method for producing the optically anisotropic layer, a laminate, polarizing plate, display device, liquid crystal compound, method for producing the liquid crystal compound, and carboxylic acid compound” (FUJIFILM Corporation, priority 2014, dated 2021).

Experiments:
[1] = Evaluation of phase transition temperature by polarizing microscope; assay type: physicochemical; details: for Phase Transition Temperature Evaluation of Decrease: versus comparative compound with the same Ar and side chain portion of Formula (Ia)
Description: Here, the temperature at which the compound transitions from the smectic phase to the nematic phase may be easily measured by observation of the composition employing polarized light microscopy. For example, in the nematic phase, a schlieren texture specific to the nematic phase is observed, while the texture transitions to a focal conic fan texture in a smectic A phase. Therefore, the phase transition temperature can be measured by observing the textures with a polarizing microscope while increasing or decreasing the temperature.
The phase transition temperatures of the synthesized liquid crystal compounds of the Examples and Comparative Examples were observed using a polarizing microscope to evaluate the degrees of temperature decrease. Specifically, the compounds of the Examples were compared to the compounds of the Comparative Examples, which have different structures for the side chain portions thereof. That is, the phase transition temperature of a compound of a Comparative Example having Ar (the aromatic ring at the center of General Formula 1) in common with the Examples and a side chain portion represented by Formula (Ia) below was used as a reference. Evaluations of A through C were assigned according to the degree of temperature decrease from the reference phase transition temperature.
(§1) For example, compound (I-1) and (I-2) were compared to Comparative Compound (Ia-1), and Compound (III-3) was compared to Comparative Compound (IIIa-3). The evaluation was carried out based on the following criteria.
A: decrease in melting point or Sm-N (smectic-nematic) transition temperature is 20° C. or greater
B: decrease in melting point or Sm-N (smectic-nematic) transition temperature is 5° C. or greater and less than 20° C.
C: decrease in melting point or Sm-N (smectic-nematic) transition temperature is less than 5° C.
With respect to the phase transition temperature, the numerical value in parentheses represents the numerical value during temperature decrease, and other numerical values represent a numerical value during temperature increase.

[2] = Measurement and evaluation of solubility in MEK and CPN; assay type: physicochemical; details: for Solubility CPN wt %: cyclopentanone; for Solubility CPN wt % / Solubility MEK wt %: room temperature, visual observation, 5 wt % increments; for Solubility MEK wt %: methyl ethyl ketone; for Solubility Evaluation: versus comparative compound with the same Ar and side chain portion of Formula (Ia)
Protocol: Solubility measurements of the synthesized liquid crystal compounds were conducted by the following method. 50 mg of each compound was weighted into a 1.5 mL sample bottle, and solvent was added until the solid component became 40 wt % (75 mg). The solubility was determined to be 40 wt % if clear under visual observation after shaking well manually at room temperature. If undissolved residue was present, solvent was added such that the solid component became 35 wt % (+18 mg). The solubility was determined to be 35 wt % if clear under visual observation after shaking well manually at room temperature. If undissolved residue was present, solvent was added such that the solid component became 30 wt %. Similar operations were performed in increments of 5 wt %, and repeated until the solid component became 5 wt %. If undissolved residue was present, the solubility was determined to be less than 5 wt % (<5 wt %), and measurements were completed. MEK (methyl ethyl ketone) and CPN (cyclopentanone) were utilized as solvents for measuring solubility.
The measured values of solubility were evaluated. The evaluations were conducted by using solubility of a compound of a Comparative Example having Ar (the aromatic ring at the center of General Formula 1) in common with the Examples and a side chain portion represented by Formula (Ia) as a reference, in a manner similar to that in the evaluation of the phase transition temperature. Evaluations of A through C were assigned according to the degree of improvement in solubility from the reference solubility.
as §1
A: solubility improved twofold or greater in plural solvents or a single solvent
B: solubility was the same or improved up to twofold in plural solvents or a single solvent
C: no improvement in solubility in plural solvents or a single solvent

[3] = value in parentheses: during temperature decrease

Row | SMILES | TNi(° C.) Isotropic Phase Transition Point ([1]; during temperature increase) | Tsm—N(° C.) Sm—N Transition Point ([1]; during temperature increase) | melting point | Solubility CPN wt % [2] | Solubility MEK wt % [2] | TNi(° C.) Isotropic Phase Transition Point [1, 3] | Tsm—N(° C.) Sm—N Transition Point [1, 3] | Phase Transition Temperature Evaluation of Decrease [1] | Solubility Evaluation [2]
1 | C=CC(=O)OCCOC(=O)CCC(=O)OCCc1ccc(OC(=O)[C@H]2CC[C@H](C(=O)Oc3ccc(OC(=O)[C@H]4CC[C@H](C(=O)Oc5ccc(CCOC(=O)CCC(=O)OCCOC(=O)C=C)cc5)CC4)c4c3SC(=C(C#N)C#N)S4)CC2)cc1 [Compound I-1] | 172 °C | 140 °C | 108 °C | 40 wt % | 20 wt % | – | – | A (decrease in melting point or Sm-N (smectic-nematic) transition temperature is 20 °C or greater) | A (solubility improved twofold or greater in plural solvents or a single solvent)
2 | C=C(C)C(=O)OCCOC(=O)CCC(=O)OCCc1ccc(OC(=O)[C@H]2CC[C@H](C(=O)Oc3ccc(OC(=O)[C@H]4CC[C@H](C(=O)Oc5ccc(CCOC(=O)CCC(=O)OCCOC(=O)C(=C)C)cc5)CC4)c4c3SC(=C(C#N)C#N)S4)CC2)cc1 [Compound I-2] | 168 °C | 130 °C | 105 °C | 20 wt % | 10 wt % | – | – | A (decrease in melting point or Sm-N (smectic-nematic) transition temperature is 20 °C or greater) | A (solubility improved twofold or greater in plural solvents or a single solvent)
3 | C=CC(=O)OCCCCOC(=O)CCC(=O)OCCc1ccc(OC(=O)[C@H]2CC[C@H](C(=O)Oc3ccc(OC(=O)[C@H]4CC[C@H](C(=O)Oc5ccc(CCOC(=O)CCC(=O)OCCCCOC(=O)C=C)cc5)CC4)c4c3SC(=C(C#N)C#N)S4)CC2)cc1 [Compound I-3] | 156 °C | 126 °C | 107 °C | 25 wt % | 15 wt % | – | – | A (decrease in melting point or Sm-N (smectic-nematic) transition temperature is 20 °C or greater) | A (solubility improved twofold or greater in plural solvents or a single solvent)
4 | C=CC(=O)OCCOCCOC(=O)CCC(=O)OCCc1ccc(OC(=O)[C@H]2CC[C@H](C(=O)Oc3ccc(OC(=O)[C@H]4CC[C@H](C(=O)Oc5ccc(CCOC(=O)CCC(=O)OCCOCCOC(=O)C=C)cc5)CC4)c4c3SC(=C(C#N)C#N)S4)CC2)cc1 [Compound I-5] | 172 °C | 146 °C | 110 °C | 40 wt % | 15 wt % | – | – | A (decrease in melting point or Sm-N (smectic-nematic) transition temperature is 20 °C or greater) | A (solubility improved twofold or greater in plural solvents or a single solvent)
5 | C=CC(=O)OCCOC(=O)COCC(=O)OCCc1ccc(OC(=O)[C@H]2CC[C@H](C(=O)Oc3ccc(OC(=O)[C@H]4CC[C@H](C(=O)Oc5ccc(CCOC(=O)COCC(=O)OCCOC(=O)C=C)cc5)CC4)c4c3SC(=C(C#N)C#N)S4)CC2)cc1 [Compound I-6] | 172 °C | 146 °C | 110 °C | 20 wt % | 10 wt % | – | – | A (decrease in melting point or Sm-N (smectic-nematic) transition temperature is 20 °C or greater) | A (solubility improved twofold or greater in plural solvents or a single solvent)
6 | C=C(C)C(=O)OCCOCCNC(=O)OCCc1ccc(OC(=O)[C@H]2CC[C@H](C(=O)Oc3ccc(OC(=O)[C@H]4CC[C@H](C(=O)Oc5ccc(CCOC(=O)NCCOCCOC(=O)C(=C)C)cc5)CC4)c4c3SC(=C(C#N)C#N)S4)CC2)cc1 [Compound I-7] | 195 °C | 145 °C | 130 °C | 25 wt % | 10 wt % | – | – | B (decrease in melting point or Sm-N (smectic-nematic) transition temperature is 5 °C or greater and less than 20° C.) | A (solubility improved twofold or greater in plural solvents or a single solvent)
7 | C=C(C)C(=O)OCCNC(=O)OCCc1ccc(OC(=O)[C@H]2CC[C@H](C(=O)Oc3ccc(OC(=O)[C@H]4CC[C@H](C(=O)Oc5ccc(CCOC(=O)NCCOC(=O)C(=C)C)cc5)CC4)c4c3SC(=C(C#N)C#N)S4)CC2)cc1 [Compound I-9] | 220 °C | 158 °C | 130 °C | 20 wt % | 5 wt % | – | – | B (decrease in melting point or Sm-N (smectic-nematic) transition temperature is 5 °C or greater and less than 20° C.) | B (solubility was the same or improved up to twofold in plural solvents or a single solvent)

The next lines start with results.

Row | TNi(° C.) Isotropic Phase Transition Point ([1]; during temperature increase) | Tsm—N(° C.) Sm—N Transition Point ([1]; during temperature increase) | melting point | Solubility CPN wt % [2] | Solubility MEK wt % [2] | TNi(° C.) Isotropic Phase Transition Point [1, 3] | Tsm—N(° C.) Sm—N Transition Point [1, 3] | SMILES | Phase Transition Temperature Evaluation of Decrease [1] | Solubility Evaluation [2]
8 | 185 °C | 179 °C | 126 °C | 25 wt % | 10 wt % | – | – | C=CCCCCCCCCC(=O)OCCc1ccc(OC(=O)[C@H]2CC[C@H](C(=O)Oc3ccc(OC(=O)[C@H]4CC[C@H](C(=O)Oc5ccc(CCOC(=O)CCCCCCCCC=C)cc5)CC4)c4c3SC(=C(C#N)C#N)S4)CC2)cc1 [Compound I-14] | B (decrease in melting point or Sm-N (smectic-nematic) transition temperature is 5 °C or greater and less than 20° C.) | A (solubility improved twofold or greater in plural solvents or a single solvent)
9 | – | – | – | 40 wt % | 40 wt % | (50) ° C. | – | C=CC(=O)OCCOC(=O)CCC(=O)OCCc1ccc(OC(=O)[C@H]2CC[C@H](C(=O)Oc3ccc(OC(=O)[C@H]4CC[C@H](C(=O)Oc5ccc(CCOC(=O)CCC(=O)OCCOC(=O)C=C)cc5)CC4)c4c3SC(=C(C#N)C(=O)OCCC(C)(C)O)S4)CC2)cc1 [III-7] | A (decrease in melting point or Sm-N (smectic-nematic) transition temperature is 20 °C or greater) | A (solubility improved twofold or greater in plural solvents or a single solvent)
10 | – | – | – | 40 wt % | 40 wt % | (113) ° C. | (61) ° C. | C=CC(=O)OCCOC(=O)CCC(=O)OCCc1ccc(OC(=O)[C@H]2CC[C@H](C(=O)Oc3cc(CC)c(OC(=O)[C@H]4CC[C@H](C(=O)Oc5ccc(CCOC(=O)CCC(=O)OCCOC(=O)C=C)cc5)CC4)c4c3SC(=C(C#N)C#N)S4)CC2)cc1 [IV-2] | – | –
11 | – | – | – | 40 wt % | 40 wt % | (58) ° C. | – | C=CC(=O)OCCOC(=O)CCC(=O)OCCc1ccc(OC(=O)[C@H]2CC[C@H](C(=O)Oc3cc(C(C)(C)C)c(OC(=O)[C@H]4CC[C@H](C(=O)Oc5ccc(CCOC(=O)CCC(=O)OCCOC(=O)C=C)cc5)CC4)c4c3SC(=C(C#N)C#N)S4)CC2)cc1 [IV-6] | A (decrease in melting point or Sm-N (smectic-nematic) transition temperature is 20 °C or greater) | A (solubility improved twofold or greater in plural solvents or a single solvent)
12 | – | – | – | 10 wt % | <5 wt % | (167) ° C. | – | C=CC(=O)OCCCCCCOc1ccc(OC(=O)[C@H]2CC[C@H](C(=O)Oc3cc(C(C)(C)C)c(OC(=O)[C@H]4CC[C@H](C(=O)Oc5ccc(OCCCCCCOC(=O)C=C)cc5)CC4)c4c3SC(=C(C#N)C#N)S4)CC2)cc1 [IVa-6, reference compound] | – | –
